Measurements taken from patent US12528769B2, “Synthesis of (2S,5R)-5-(2-chlorophenyl)-1-(2′-methoxy-[1,1′-biphenyl]-4-carbonyl)pyrrolidine-2-carboxylic acid” (EPICS THERAPEUTICS, priority 2020, dated 2026).
Read-outs that look alike come from different tables or passages of the source.

How the values were obtained:
Assay type in all cases: physicochemical
Solubility in water = details: for Native pH: 150 mg material in 1.0 mL deionized water, before pH adjustment; for solubility: deionized water, pH 7.4, aqueous buffer, thermodynamic from solid
Experimental: Method. The solubility in water was studied as described hereafter. 150 mg of the studied materials of (1), (1·Na) and (1·K) were transferred to a glass vial and 1.0 mL of deionized water was added, vortex and ultrasonic treatment cycles were applied during 5 min. Then pH was checked and adjusted to pH=9.0-10.0 range by accurate addition of 2M aqueous solution of NaOH for (1) and (1·Na) or KOH for (1·K). Then several cycles of vortex and ultrasonic treatment were applied for 30 min. pH was adjusted to pH=7.2-7.6 range by careful addition of NaOH or KOH or HCl aqueous solutions. Vortex and ultrasonic treatment cycles and pH adjustments were repeated until pH stabilized at pH=7.2-7.6 range. Then the suspensions were centrifuged at 3000 rpm and supernatant was filtered thought membrane filter. The resulting filtrate was diluted in 1000 folds with DMSO and analyzed by HPLC against standard solution with known concentration.

[1] = Forced degradation: photolytic stability; details: for Photolytic stability, purity (%): solutions 1 mg/mL in ACN/water (3:7), cool daylight lamp, around 22° C.; for Initial purities, purity (%): T0, baseline of the photolytic and thermal stability studies; for Decrease of purity in the photolytic stability assay: after 3 weeks
Experimental: For photolytic stability, cool daylight lamp OSRAM DULUX TWIST 23W 1600 lm 6500 K located in 20 cm distance from the studied samples was used. Samples were prepared at 1 mg/mL concentration in ACN/water (3:7 v/v) solution and exposed to light in capped glass vials placed on reflective surface at ambient temperature (around 22° C.).
(§1) Samples were analyzed by RP-HPLC and Chiral HPLC at TO, after 1 week and after 3 weeks. For RP-HPLC analysis samples were analyzed directly from solutions used for stability study. For Chiral HPLC, aliquots were evaporated in Genevac at 40° C. and re-dissolved in the mobile phase.

[2] = Forced degradation: thermal stability; details: for Thermal stability, purity (%): solids at 115° C.; for Decrease of purity in the thermal stability assay: after 3 weeks
Experimental: For thermal stability powders were exposed to elevated temperature in capped glass vials kept inside thermostatic oven at 115° C.
as §1

[3] = water, pH adjusted to 7.2-7.6, filtrate analysed by HPLC, read-out: Maximal solubility pH 7.4

In the case of COc1ccccc1-c1ccc(C(=O)N2[C@@H](c3ccccc3Cl)CC[C@H]2C(=O)[O-])cc1.[K+] [1·K], the “Native pH” value (Solubility in water) is reported as 7 and the “Maximal solubility pH 7.4” value (Solubility in water; water, pH adjusted to 7.2-7.6, filtrate analysed by HPLC) is reported as 87 mg/mL.
In the case of COc1ccccc1-c1ccc(C(=O)N2[C@@H](c3ccccc3Cl)CC[C@H]2C(=O)[O-])cc1.[Na+] [1·Na, sodium (2S,5R)-5-(2-chlorophenyl)-1-(2′-methoxy-[1,1′-biphenyl]-4-carbonyl)pyrrolidine-2-carboxylate], the “Native pH” value (Solubility in water) is reported as 7, the solubility (Solubility in water; [3]) is reported as 129 mg/mL and the solubility (Solubility in water; water, read-out: Aqueous solubility (confirmed)) is reported as roughly 130 mg/mL. For the same compound, the “Increase of aqueous solubility compared with the free acid (1)” value (Solubility in water; water, pH 7.4) was 2 fold, the “Increase of aqueous solubility compared with the potassium salt (1·K)” value (Solubility in water; water, pH 7.4) was 1.5 fold and the “Photolytic stability, purity (%)” value ([1]; 1 week) was 98.5%. The “Photolytic stability, purity (%)” value ([1]; 3 weeks) was 97.0%, the “Initial purities, purity (%)” value [1] was 99.3% and the “Decrease of purity in the photolytic stability assay” value [1] was 2.3%. The “Thermal stability, purity (%)” value ([2]; 1 week) was 99.1%, the “Thermal stability, purity (%)” value ([2]; 3 weeks) was 98.9% and the “Decrease of purity in the thermal stability assay” value [2] was 0.4%.
For COc1ccccc1-c1ccc(C(=O)N2[C@@H](c3ccccc3Cl)CC[C@H]2C(=O)O)cc1 [compound 1, (2S,5R)-5-(2-chlorophenyl)-1-(2′-methoxy-[1,1′-biphenyl]-4-carbonyl)pyrrolidine-2-carboxylic acid], the “Native pH” value (Solubility in water) was 5, the “Solubility in water (in words)” value (Solubility in water; acid form) was “poorly soluble in water” and the solubility (Solubility in water; [3]) was greater than 64 mg/mL. The “Photolytic stability, purity (%)” value ([1]; 1 week) was 96.7%, the “Photolytic stability, purity (%)” value ([1]; 3 weeks) was 75.9% and the “Initial purities, purity (%)” value [1] was 99.3%. For the same compound, the “Decrease of purity in the photolytic stability assay” value [1] was 23.6%, the “Thermal stability, purity (%)” value ([2]; 1 week) was 88.5% and the “Thermal stability, purity (%)” value ([2]; 3 weeks) was 71.4%. The “Decrease of purity in the thermal stability assay” value [2] was 28.1%.
